This note sets out measurements from publication PMC11356571, “The Comparative Metabolism of a Novel Hepatocellular Carcinoma Therapeutic Agent, 2,3-Diamino-N-(4-(benzo[d]thiazol-2-yl)phenyl)propanamide, in Human and Animal Hepatocytes” (Metabolites, 2024).

One data set addresses T1, CYP2B6 (Homo sapiens, UniProt P20813).
T1 construct: purchased Cypex Ltd. (Dundee, UK)
T1 sequence (P20813 1-491): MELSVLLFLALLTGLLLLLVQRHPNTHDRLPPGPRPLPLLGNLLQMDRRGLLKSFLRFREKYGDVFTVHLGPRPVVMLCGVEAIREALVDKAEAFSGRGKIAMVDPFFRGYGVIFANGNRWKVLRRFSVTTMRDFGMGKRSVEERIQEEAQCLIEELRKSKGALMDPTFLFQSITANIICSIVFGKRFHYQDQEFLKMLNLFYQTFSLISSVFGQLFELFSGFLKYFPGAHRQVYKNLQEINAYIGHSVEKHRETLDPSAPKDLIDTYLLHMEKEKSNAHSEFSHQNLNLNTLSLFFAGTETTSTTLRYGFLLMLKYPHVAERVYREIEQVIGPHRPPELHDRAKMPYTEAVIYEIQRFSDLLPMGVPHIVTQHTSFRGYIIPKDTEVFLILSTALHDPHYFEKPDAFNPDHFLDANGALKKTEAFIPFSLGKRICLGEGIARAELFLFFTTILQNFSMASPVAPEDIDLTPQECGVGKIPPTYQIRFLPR
Description: Incubation with human cDNA-expressed CYP2B6. In kind it is in vitro ADME. Particulars: CYP2B6, 30 min at 37 °C with NADPH; ETN101 10 μM or M1 1 μM. Here is the method: ETN101 or M1 was incubated with nine human cDNA-expressed CYP enzymes (1A2, 2A6, 2B6, 2C8, 2C9, 2C19, 2D6, 2E1, and 3A4) to identify the CYPs involved in the metabolism of ETN101. Based on the preliminary study, the incubation conditions were determined as follows: Briefly, reaction mixtures of 50 μL containing ETN101 (final concentration: 10 μM) or M1 (final concentration: 1 μM), and CYPs (final amount: 5 pmol for CYP1A2, 2A6, 2C8, 2C9, 2C19, 2D6, and 3A4; 10 pmol for CYP2B6 and 2E1) were prepared in 0.1 M potassium phosphate buffer. The reaction was initiated by adding 50 μL of NADPH- regenerating system; the mixtures were incubated for 0 min or 30 min at 37 °C in triplicate. Reactions were terminated by the addition of 100 μL of ice-cold acetonitrile containing the IS (camptothecin, 200 ng/mL). Samples were centrifuged at 13,000 rpm for 5 min at 4 °C. An aliquot of 2 μL supernatant was injected in LC–MS/MS system.
For enzyme characterization, an Agilent 6460 triple quadrupole mass spectrometer coupled with a 1260 HPLC system (Agilent Technologies, Santa Clara, CA, USA) and a Kinetex Halo® C18 column (2.7 μm, 2.1 × 50 mm, Advanced Material Technology, Wilmington, DE, USA) were used for chromatographic separation. […] ETN101, M1, and M2 were detected via MRM using ESI in the positive mode. […]

Another data set has as its system rat hepatocytes. Description: Metabolite characterization in rat hepatocytes. In kind it is in vitro ADME. Particulars: rat hepatocyte 1 h incubates of ETN101; ND:<1.2E+05 peak area. Here is the method: We mixed 60 μL aliquots of 40 μM ETN101 in incubation medium and an equal volume of human, mouse, rat, dog, or monkey hepatocyte suspension in 96-well plates and incubated for 0 or 1 h in a CO2 incubator at 37 °C. The reactions were quenched by adding 120 µL of ice-cold acetonitrile to each well, and the cell suspension was sonicated for 5 min at 4 °C. Subsequently, centrifugation was carried out at 15,000× g for 10 min at 4 °C. Next, the supernatants were evaporated to dryness using a vacuum concentrator, and residues were re-dissolved in 70 μL of 30% acetonitrile. Each sample (5 μL aliquots) was analyzed using LC–HRMS system.
For metabolite characterization, a Vanquish HPLC system (Thermo Fisher Scientific, San José, CA, USA) coupled with a Q-Exactive Orbitrap mass spectrometer (Thermo Fisher Scientific Inc., Waltham, MA, USA) was used at Core Research Support Center for Natural Products and Medical Materials at Yeungnam University. […] The eluent from the column was directly injected into the mass spectrometer using a heated electrospray ionization (HESI) source in positive ionization mode. […] The spray voltage was 3.0 kV and the capillary temperature was 320 °C. Full scan MS^1 with a data-dependent MS^2 acquisition mode was applied to obtain MS^1 scan data ranging from m/z 80 to 900, at a resolution of 70,000, whereas data-dependent MS^2 spectra were acquired for the five most abundant peaks per cycle at a resolution of 35,000. The parallel reaction monitoring (PRM) mode was used to obtain the MS^2 spectra of putative metabolites detected at low peak intensities in the data-dependent MS^2 acquisition mode. Data were collected and interpreted using Thermo Scientific Xcalibur™ Software (Thermo Fisher Scientific).

For the molecule `NCC(N)C(=O)Nc1ccc(-c2nc3ccccc3s2)cc1` (stereo not shown) [ETN101, 2,3-diamino-N-(4-(benzo[d]thiazol-2-yl)phenyl)propanamide], at CYP2B6, the Percentage remaining was determined as 92.8%. Besides, the “Relative peak area (%)” value with rat hepatocytes was 18.7%.
For the molecule `Nc1ccc(-c2nc3ccccc3s2)cc1` [M1, 2-(4-aminophenyl)benzothiazole], at CYP2B6, the Percentage remaining was found to be 109.8%. The “Relative peak area (%)” value in the data set with rat hepatocytes is listed as 75.2%.
